Test results taken from patent publication US20120328721A1, “ALOE VERA SPROUT CONCENTRATE OR EXTRACT HAVING SUPERIOR SKIN CELL GROWTH PROMOTION, ANTIOXIDANT, AND ANTI-ALLERGY EFFECTS” (l, priority 2009, published 2012).

Test system: type I collagen mRNA
Experiment: Promotion of collagen synthesis (type I collagen mRNA, RT-PCR)
Assay type: cell-based
Conditions: positive control vitamin C 100 μg/ml
Method: To evaluate the inhibitory activity against MMP-1 gene expression of Aloe vera shoot concentrate, the change of mRNA expression was measured. RNA was extracted by using Trizol (Invitrogen, USA) according to the guanidium thiocyanate-phenol-chloroform extraction method, and then RT-PCR was carried out by using an All-in-one RT-PCR kit (SuperBio, Korea). PCR (reverse transcription at 50° C. for 30 minutes, inactivation of reverse transcriptase at 96° C. for 3 minutes, 25 cycles of 94° C. for 1 minute, 48° C. for 1 minute and 72° C. for 1 minute) was carried out by using an MMP-1 primer of Table 9, and actin was used as a control group. To evaluate the activity for the promotion of collagen synthesis of Aloe vera shoot concentrate, the expression of collagen mRNA was measured. RT-PCR was carried out with the same method as Experimental Example 9 except that the condition was 30 cycles of 94° C. for 1 minute, 62° C. for 1 minute and 72 ° C. for 1 minute, and collagen primer of Table 11 was used.

`O=C1O[C@H]([C@@H](O)CO)C(O)=C1O` [vitamin C] was tested. Which “Type I collagen expression amount (%)” value (column 100 μg/ml) did it give?
The value was 131.1%.

What about the “Type I collagen expression amount (%)” value (column 200 μg/ml) of the same compound?
Its value is 156.3%.
